Source: publication PMC2777746 (ACS chemical biology, 2009)

Legend:
[1] = Solubility in water; format: physicochemical
[2] = tested on: C. albicans group I intron precursor; assay: Inhibition of C. albicans group I intron precursor self-splicing; format: biochemical, Candida albicans; conditions: read-out: IC50 for inhibition of precursor self-splicing; 2 mM Mg2+ (H2Mg buffer: 50 mM Na HEPES pH 7.5, 135 mM KCl), 1 mM nucleotide bulk yeast tRNA competitor, 100 µM GMP; four parameter logistic fit

Compound	solubility in water [1]	IC50 [2] [µM]
NCCc1c[nH]c2ccccc12 [Compound 4, tryptamine]	not soluble in water	
N=C(N)c1ccc(OCCCCCOc2ccc(C(=N)N)cc2)cc1 [Pentamidine, pentamidine]		200 ± 35
c1ccc(Cn2cc(CN(Cc3cn(Cc4ccccc4)nn3)Cc3cn(Cc4ccccc4)nn3)nn2)cc1 [TBTA, tris(benzyltriazolylmethyl)amine]		> 5000
